Usually half-life stands for the time needed for the level to fall by half in the phase considered.

A short description of series [1]: Thermal stability: half-life by 1H NMR in methanol-d4 heated at 60° C. (Test Examples 1-2, 2-2). As to conditions: for half-life at 60° C.: 1 mg in methanol-d4 (0.35 ml), 1H NMR at intervals of 2 to 3 hours; for thermal stability compared with AMPPD: methanol-d4, 60° C., versus AMPPD. Type of series: physicochemical. As to the method:
1 mg of 3-isopropoxy-4,4-diisopropyl-3-(3'-phosphoryloxy)phenyl-1,2-dioxetane disodium salt (Compound [40]) synthesized in Example 26 was dissolved in methanol-d4 (0.35 ml), and the solution was heated at 60° C. in a thermostated bath, so that the solution was subjected to ^1 HNMR measurement at intervals of 2 to 3 hours.
In the above ^1 HNMR measurement, Compound [40] was replaced by the commercially available AMPPD (3-(2'-spiroadamantan)-4-methoxy-4-(3"-phosphoryloxy)phenyl-1,2-dioxetane disodium salt), whereby the half-life of AMPPD at 60° C. was also calculated in the same manner as mentioned above.
1 mg of 3-t-butyl-4-methoxy-3-neopentyloxymethyl-4-(3'-phosphoryloxy)phenyl-1,2-dioxetane disodium salt (Compound [86]) synthesized in Example 66 was dissolved in methanol-d4 (0.35 ml), and the solution was heated at 60° C. in a thermostated bath, so that the solution was subjected to ^1 HNMR measurement at intervals of 2 to 3 hours.

Series [2] concerns alkaline phosphatase. Put plainly: Chemiluminescence with alkaline phosphatase in presence of quaternary ammonium salt (BDMG), Test Example 2-1 (FIG. 2). Type of series: biochemical. Particulars: 0.2 mg/ml, 0.1M diethanolamine/HCl buffer pH 10.0 with 0.4 mg/ml BDMG, 37° C.; versus AMPPD. As for the experimental part: 3-t-butyl-4-methoxy-3-neopentyloxymethyl-4-(3'-phosphoryloxy)phenyl-1,2-dioxetane disodium salt (Compound [86]) synthesized in Example 66 was dissolved in a 0.1M diethanolamine/hydrochloric acid buffer solution (pH 10.0 ) containing 0.4 mg/ml of quaternary ammonium salt (BDMG), 1 mM magnesium chloride and 0.05% sodium azide, in such an amount that the concentration of the dissolved Compound [86] was 0.2 mg/ml, and the solution was stirred.
(§1) 300 μl of this solution was placed in a cartridge for assay and incubated for 90 minutes.
After this incubation, 20 μl of an enzyme solution was added to the above solution, which enzyme solution was prepared by diluting an alkaline phosphatase solution for enzyme immunoassay (made by Boehringer Mannheim Co., Ltd.) (3 mg/0.3 ml) 154 times with a 50 mM Tris/cl buffer solution (pH 7.2) containing 0.15M sodium chloride, 1 mM magnesium chloride, 0.1 mM zinc chloride and 0.1% sodium azide.
(§2) The luminescence of the above diluted enzyme solution was measured at 37° C. at regular time intervals.
For comparison, the luminescence of a commercially available AMPPD (3-(2'-spiroadamantan)-4-methoxy-4-(3"-phosphoryloxy)phenyl-1,2-dioxetane disodium salt) was measured under the same conditions as mentioned above, by replacing the Compound [86] with AMPPD in accordance with the above-mentioned procedure.

The test system of series [3] is alkaline phosphatase. Put plainly: Chemiluminescence with alkaline phosphatase, Test Example 1-1 (FIG. 1). The format is biochemical. As to conditions: 0.2 mg/ml, 0.1M diethanolamine/HCl buffer pH 10.0, 37° C.; versus AMPPD. As for the experimental part:
3-isopropoxy-4,4-diisopropyl-3-(3'-phosphoryloxy)phenyl-1,2-dioxetane disodium salt (Compound [40]) synthesized in Example 26 was dissolved in a 0.1M diethanolamine/hydrochloric acid buffer solution (pH 10.0) containing 1 mM magnesium chloride and 0.05% sodium azide, in such an amount that the concentration of the dissolved Compound [40]) was 0.2 mg/ml, and the solution was stirred.
as §1
After this incubation, 20 μl of an enzyme solution was added to the above solution, which enzyme solution was prepared by diluting an alkaline phosphatase solution for enzyme immunoassay (made by Boehringer Mannheim Co., Ltd.) (3 mg/0.3 ml) 154 times and then 10^5 times with a 50 mM Tris/cl buffer solution (pH 7.2) containing 0.15M sodium chloride, 1 mM magnesium chloride, 0.1 mM zinc chloride and 0.1% sodium azide.
as §2
For comparison, the luminescence of a commercially available AMPPD (3-(2'-spiroadamantan)-4-methoxy-4-(3"-phosphoryloxy)phenyl-1,2-dioxetane disodium salt was measured under the same conditions as mentioned above, by replacing the Compound [40] with AMPPD in accordance with the above-mentioned procedure.

Counter-ions that a name gives are not always drawn.

Take `COC1(c2cccc(OP(=O)(O)O)c2)OOC1(COCC(C)(C)C)C(C)(C)C` (stereo not shown) [Compound [86], 3-t-butyl-4-methoxy-3-neopentyloxymethyl-4-(3'-phosphoryloxy)phenyl-1,2-dioxetane disodium salt]: in series [1], the “half-life at 60° C.” value is 18.6 h and the “thermal stability compared with AMPPD” value is recorded as “thermally more stable”. Further, the “chemiluminescence intensity compared with AMPPD” value in the series on alkaline phosphatase [2] is on record as “higher intensity”.

In the case of `COC1(c2cccc(OP(=O)(O)O)c2)OOC12C1CC3CC(C1)CC2C3` (stereo not shown) [AMPPD, 3-(2'-spiroadamantan)-4-methoxy-4-(3"-phosphoryloxy)phenyl-1,2-dioxetane disodium salt, reference compound], in series [1], the “half-life at 60° C.” value was 5.5 h.

In the case of `CC(C)OC1(c2cccc(OP(=O)(O)O)c2)OOC1(C(C)C)C(C)C` (stereo not shown) [Compound [40], 3-isopropoxy-4,4-diisopropyl-3-(3'-phosphoryloxy)phenyl-1,2-dioxetane disodium salt], in series [1], the “half-life at 60° C.” value came out at 14.3 h and the “thermal stability compared with AMPPD” value was “thermally more stable”. The “chemiluminescence intensity compared with AMPPD” value in the series with alkaline phosphatase [3] is “higher intensity”.

Values taken from patent US5650525A, “1,2-dioxetane derivatives, intermediates for syntheses thereof and methods of producing the intermediates” (priority 1994, dated 1997).
